Data on 14 compounds can be found in US20240158446A1, “CYCLIC COMPOUND HAVING SELECTIVE INHIBITORY ACTION ON KRAS OVER HRAS AND NRAS” (CHUGAI SEIYAKU KABUSHIKI KAISHA, priority 2021, published 2024).

Molecules are shown by their SMILES.

For experiment [1], the target named is GDP-bound NRAS wild-type protein (Homo sapiens, UniProt P01111). Briefly: Binding to NRAS by surface plasmon resonance (SPR), Single Cycle Kinetics. The note with it: ratio of KD for GDP-bound NRAS wild-type protein to KD for KRAS, SPR. On the technique in general: SPR reads the build-up and loss of mass on a sensor chip optically.
Experiment [2] concerns the target GDP-bound KRAS wild-type protein (Homo sapiens, UniProt P01116). The experiment can be described thus: Binding to KRAS by surface plasmon resonance (SPR), Single Cycle Kinetics. The note with it: SPR, Single Cycle Kinetics, GDP-bound KRAS wild-type protein; read-out: KRAS KD.
For experiment [3], the system named is human lung cancer strain NCI-H441. Briefly: cells. The note with it: NCI-H441, 96 h, read-out: NCI-H441 IC50 (nM), NCI-H441 cell proliferation, 4 days, CellTiter-Glo.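 Also: cell proliferation inhibition after four days measured by CellTiter-Glo.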
The target of experiment [4] is GDP-bound HRAS wild-type protein (Homo sapiens, UniProt P01112). Briefly: Binding to HRAS by surface plasmon resonance (SPR), Single Cycle Kinetics. The conditions noted are these: ratio of KD for GDP-bound HRAS wild-type protein to KD for KRAS, SPR.
Sequence of GDP-bound HRAS wild-type protein (P01112 whole entry): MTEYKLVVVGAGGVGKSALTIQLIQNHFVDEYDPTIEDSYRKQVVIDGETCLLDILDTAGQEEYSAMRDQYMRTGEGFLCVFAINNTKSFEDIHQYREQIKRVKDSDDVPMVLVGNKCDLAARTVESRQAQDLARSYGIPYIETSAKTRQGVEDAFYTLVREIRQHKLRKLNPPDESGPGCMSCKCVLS

Sequence of GDP-bound KRAS wild-type protein (P01116 whole entry): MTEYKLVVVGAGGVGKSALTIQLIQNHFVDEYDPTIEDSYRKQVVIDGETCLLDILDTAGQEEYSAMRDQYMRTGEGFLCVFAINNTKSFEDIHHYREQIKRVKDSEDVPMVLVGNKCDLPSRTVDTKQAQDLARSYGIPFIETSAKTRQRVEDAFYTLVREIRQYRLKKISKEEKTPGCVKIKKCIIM
Sequence of GDP-bound NRAS wild-type protein (P01111 whole entry): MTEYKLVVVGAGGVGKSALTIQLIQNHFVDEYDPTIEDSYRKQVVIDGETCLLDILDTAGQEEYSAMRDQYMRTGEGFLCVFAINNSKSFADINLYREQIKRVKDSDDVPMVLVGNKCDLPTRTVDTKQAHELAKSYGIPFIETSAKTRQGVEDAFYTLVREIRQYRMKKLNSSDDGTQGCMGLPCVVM

Take `CCC[C@H]1C(=O)N[C@@H]([C@@H](C)CC)C(=O)N(C)CC(=O)N(C)[C@H]2C/C=C\CCN(C2=O)[C@@H](Cc2ccc(C)cc2)C(=O)N(C)CC(=O)N[C@@H](CCc2ccc(C(F)(F)F)c(Cl)c2)C(=O)N2C[C@@H](C)C[C@H]2C(=O)NC2(CC(C)(C)C2)C(=O)N(C)[C@@H](C2CCCC2)C(=O)N(C)[C@H](C(=O)N(C)CC)CC(=O)N1C` [PP1893]: in experiment [1], the “NRAS/KRAS (KD ratio)” value is “A (a compound having 10 or more and less than 20 is denoted as A)”. Also, the Kd in experiment [2] worked out at 0.17 nM. In addition, the IC50 in experiment [3] was determined as 18.5 nM. The “HRAS/KRAS (KD ratio)” value in experiment [4] was “B (a compound having 3 or more and less than 10 is denoted as B)”.
As to `CCO[C@@H]1C[C@H]2C(=O)N(C)C3(CCCC3)C(=O)N(C)[C@@H](C3CCCC3)C(=O)N(C)[C@H](C(=O)N(C)C)CC(=O)N(C)[C@@H](CC)C(=O)N[C@@H]([C@@H](C)CC)C(=O)N3CCC[C@H]3C(=O)N(C)[C@H]3C/C=C\CCN(C3=O)[C@@H](Cc3ccc(C)cc3)C(=O)N(C)CC(=O)N[C@@H](CCc3cc(F)c(C(F)(F)F)c(F)c3)C(=O)N2C1` [PP1810], the “NRAS/KRAS (KD ratio)” value in experiment [1] is “A (a compound having 10 or more and less than 20 is denoted as A)”. The dissociation constant (Kd) in experiment [2] amounted to 0.16 nM. Besides, the IC50 in experiment [3] turned out to be 4.6 nM. In addition, the “HRAS/KRAS (KD ratio)” value in experiment [4] is “B (a compound having 3 or more and less than 10 is denoted as B)”.
Regarding `CCO[C@@H]1C[C@H]2C(=O)N(C)C3(CCC3)C(=O)N(C)[C@@H](C3CCCC3)C(=O)N(C)[C@H](C(=O)N(C)C)CC(=O)N(C)[C@@H](CC3CC3)C(=O)N[C@@H]([C@@H](C)CC)C(=O)N3CCC[C@H]3C(=O)N(C)[C@H]3C/C=C\CCN(C3=O)[C@@H](Cc3ccc(C)cc3)C(=O)N(C)CC(=O)N[C@@H](CCc3cc(F)c(C(F)(F)F)c(F)c3)C(=O)N2C1` [PP1797], the “NRAS/KRAS (KD ratio)” value in experiment [1] was “A (a compound having 10 or more and less than 20 is denoted as A)”. In experiment [2], the Kd was 0.1 nM. Further, the IC50 in experiment [3] worked out at 5.1 nM. Moreover, the “HRAS/KRAS (KD ratio)” value in experiment [4] is “A (a compound having 10 or more and less than 20 is denoted as A)”.
Take `CC[C@H](C)[C@@H]1NC(=O)[C@H](CC)N(C)C(=O)C[C@@H](C(=O)N(CC)CC)N(C)C(=O)[C@H](C2CCCC2)N(C)C(=O)C2(CC(C)(C)C2)NC(=O)[C@@H]2C[C@@H](C)CN2C(=O)[C@H](CCc2ccc(C(F)(F)F)c(OC)c2)NC(=O)CN(C)C(=O)[C@H](Cc2ccc(C)cc2)N2CC/C=C\C[C@@H](C2=O)N(C)C(=O)CN(C)C1=O` [PP1841]: in experiment [1], the “NRAS/KRAS (KD ratio)” value is recorded as “AA (a compound having 20 or more is denoted as AA)”. The Kd in experiment [2] was found to be 0.38 nM. Besides, the IC50 in experiment [3] was 24.3 nM. Moreover, in experiment [4], the “HRAS/KRAS (KD ratio)” value is “A (a compound having 10 or more and less than 20 is denoted as A)”.
With `CC[C@H](C)[C@@H]1NC(=O)[C@H](CC(C)C)N(C)C(=O)C[C@@H](C(=O)N(C)C)N(C)C(=O)[C@H](C2CCCC2)N(C)C(=O)C2(CCC2)NC(=O)[C@@H]2C[C@@H](C)CN2C(=O)[C@H](CCc2ccc(C(F)(F)F)c(OC)c2)NC(=O)CN(C)C(=O)[C@H](Cc2ccc(C)cc2)N2CC/C=C\C[C@@H](C2=O)N(C)C(=O)CN(C)C1=O` [PP1867], in experiment [1], the “NRAS/KRAS (KD ratio)” value is “A (a compound having 10 or more and less than 20 is denoted as A)”. The Kd in experiment [2] was determined as 0.17 nM. The IC50 in experiment [3] came out at 47.8 nM. In addition, the “HRAS/KRAS (KD ratio)” value in experiment [4] was “B (a compound having 3 or more and less than 10 is denoted as B)”.
As to `CC[C@H](C)[C@@H]1NC(=O)[C@H](CC(F)F)N(C)C(=O)C[C@@H](C(=O)N(C)CC)N(C)C(=O)[C@H](C2CCCC2)N(C)C(=O)C2(CC(C)(C)C2)NC(=O)[C@@H]2C[C@@H](C)CN2C(=O)[C@H](CCc2ccc(C(F)(F)F)c(Cl)c2)NC(=O)CN(C)C(=O)[C@H](Cc2ccc(C)cc2)N2CC/C=C\C[C@@H](C2=O)N(C)C(=O)CN(C)C1=O` [PP1837], the “NRAS/KRAS (KD ratio)” value in experiment [1] was “A (a compound having 10 or more and less than 20 is denoted as A)”. Further, the Kd in experiment [2] amounted to 0.2 nM. Moreover, in experiment [3], the IC50 was 15.6 nM. Moreover, the “HRAS/KRAS (KD ratio)” value in experiment [4] is “A (a compound having 10 or more and less than 20 is denoted as A)”.
Consider `CCCC[C@H]1C(=O)N[C@@H]([C@@H](C)CC)C(=O)N(C)CC(=O)N(C)[C@H]2C/C=C\CCN(C2=O)[C@@H](Cc2ccc(C(F)(F)F)cc2)C(=O)N(C)CC(=O)N[C@@H](CCc2cc(F)c(C(F)(F)F)c(F)c2)C(=O)N2C[C@H](OCC)C[C@H]2C(=O)NC2(CCC2)C(=O)N(C)[C@@H](C2CCCC2)C(=O)N(C)[C@H](C(=O)N(C)CCC)CC(=O)N1C` [PP1704], for which the “NRAS/KRAS (KD ratio)” value in experiment [1] was “A (a compound having 10 or more and less than 20 is denoted as A)”. The Kd in experiment [2] amounted to 0.14 nM. In addition, the IC50 in experiment [3] is 10.3 nM. Also, the “HRAS/KRAS (KD ratio)” value in experiment [4] was “A (a compound having 10 or more and less than 20 is denoted as A)”.
In the case of `CC[C@H](C)[C@@H]1NC(=O)[C@H](CC(C)C)N(C)C(=O)C[C@@H](C(=O)N(C)CC)N(C)C(=O)[C@H](C2CCCC2)N(C)C(=O)C2(CC(C)(C)C2)NC(=O)[C@@H]2C[C@@H](C)CN2C(=O)[C@H](CCc2ccc(C(F)(F)F)c(OC)c2)NC(=O)CN(C)C(=O)[C@H](Cc2ccc(C)cc2)N2CC/C=C\C[C@@H](C2=O)N(C)C(=O)CN(C)C1=O` [PP1909], the “NRAS/KRAS (KD ratio)” value in experiment [1] is “A (a compound having 10 or more and less than 20 is denoted as A)”. Also, the Kd in experiment [2] stood at 0.34 nM. Also, the IC50 in experiment [3] stood at 15.3 nM. Besides, the “HRAS/KRAS (KD ratio)” value in experiment [4] was “B (a compound having 3 or more and less than 10 is denoted as B)”.
For `CC[C@H](C)[C@@H]1NC(=O)[C@H](CCOC)N(C)C(=O)C[C@@H](C(=O)N(C)CC)N(C)C(=O)[C@H](C2CCCC2)N(C)C(=O)C2(CC(C)(C)C2)NC(=O)[C@@H]2C[C@H](C)CN2C(=O)[C@H](CCc2ccc(C(F)(F)F)c(OC)c2)NC(=O)CN(C)C(=O)[C@H](Cc2ccc(C(F)(F)F)cc2)N2CC/C=C\C[C@@H](C2=O)N(C)C(=O)CN(C)C1=O` [PP1999], the “NRAS/KRAS (KD ratio)” value in experiment [1] is “A (a compound having 10 or more and less than 20 is denoted as A)”. In experiment [2], the Kd is 0.13 nM. Further, the IC50 in experiment [3] was 26.6 nM. Further, the “HRAS/KRAS (KD ratio)” value in experiment [4] was “B (a compound having 3 or more and less than 10 is denoted as B)”.
With `CCO[C@@H]1C[C@H]2C(=O)NC3(CC(C)(C)C3)C(=O)N(C)[C@@H](C3CCCC3)C(=O)N(C)[C@H](C(=O)N(C)C)CC(=O)N(C)[C@@H](CC)C(=O)N[C@@H]([C@@H](C)CC)C(=O)N(C)CC(=O)N(C)[C@H]3C/C=C\CCN(C3=O)[C@@H](Cc3ccc(C(F)(F)F)cc3)C(=O)N(C)CC(=O)N[C@@H](CCc3ccc(C(F)(F)F)c(Cl)c3)C(=O)N2C1` [PP1746], the “NRAS/KRAS (KD ratio)” value in experiment [1] was “A (a compound having 10 or more and less than 20 is denoted as A)”. Besides, the Kd in experiment [2] amounted to 0.054 nM. In experiment [3], the IC50 was found to be 1.9 nM. Also, the “HRAS/KRAS (KD ratio)” value in experiment [4] is “A (a compound having 10 or more and less than 20 is denoted as A)”.
Turning to `CC[C@H](C)[C@@H]1NC(=O)[C@H](CC)N(C)C(=O)C[C@@H](C(=O)N(C)CC)N(C)C(=O)[C@H](C2CCCC2)N(C)C(=O)C2(CC(C)(C)C2)NC(=O)[C@@H]2C[C@H](C)CN2C(=O)[C@H](CCc2ccc(C(F)(F)F)c(OC)c2)NC(=O)CN(C)C(=O)[C@H](Cc2ccc(C)cc2)N2CC/C=C\C[C@@H](C2=O)N(C)C(=O)CN(C)C1=O` [PP1868], the “NRAS/KRAS (KD ratio)” value in experiment [1] was “A (a compound having 10 or more and less than 20 is denoted as A)”. Moreover, the Kd in experiment [2] was 0.087 nM. Also, the IC50 in experiment [3] is 10.7 nM. For the same compound, the “HRAS/KRAS (KD ratio)” value in experiment [4] was “B (a compound having 3 or more and less than 10 is denoted as B)”.
For `CCC[C@H]1C(=O)N[C@@H]([C@@H](C)CC)C(=O)N(C)CC(=O)N(C)[C@H]2C/C=C\CCN(C2=O)[C@@H](Cc2ccc(C(F)(F)F)cc2)C(=O)N(C)CC(=O)N[C@@H](CCc2cc(F)c(C(F)(F)F)c(F)c2)C(=O)N2C[C@H](OCC)C[C@H]2C(=O)NC2(CC(C)(C)C2)C(=O)N(C)[C@@H](C2CCCC2)C(=O)N(C)[C@H](C(=O)N(C)C)CC(=O)N1C` [PP1645], the “NRAS/KRAS (KD ratio)” value in experiment [1] is “A (a compound having 10 or more and less than 20 is denoted as A)”. Moreover, in experiment [2], the Kd worked out at 0.04 nM. Further, the IC50 in experiment [3] is 1.8 nM. Also, in experiment [4], the “HRAS/KRAS (KD ratio)” value is “A (a compound having 10 or more and less than 20 is denoted as A)”.
As for `CCCN(C)C(=O)[C@@H]1CC(=O)N(C)[C@@H](CCOC)C(=O)N[C@@H]([C@@H](C)CC)C(=O)N(C)CC(=O)N(C)[C@H]2C/C=C\CCN(C2=O)[C@@H](Cc2ccc(C(F)(F)F)cc2)C(=O)N(C)CC(=O)N[C@@H](CCc2ccc(C(F)(F)F)c(OC)c2)C(=O)N2C[C@H](OCC)C[C@H]2C(=O)NC2(CCC2)C(=O)N(C)[C@@H](C2CCCC2)C(=O)N1C` [PP2018], the “NRAS/KRAS (KD ratio)” value in experiment [1] was “A (a compound having 10 or more and less than 20 is denoted as A)”. In experiment [2], the Kd was 0.1 nM. The IC50 in experiment [3] worked out at 5.3 nM. In addition, the “HRAS/KRAS (KD ratio)” value in experiment [4] was “B (a compound having 3 or more and less than 10 is denoted as B)”.
Turning to `CCO[C@@H]1C[C@H]2C(=O)NC3(CC(C)(C)C3)C(=O)N(C)[C@@H](C3CCCC3)C(=O)N(C)[C@H](C(=O)N(C)CC)CC(=O)N(C)[C@@H](C3CCC3)C(=O)N[C@@H]([C@@H](C)CC)C(=O)N(C)CC(=O)N(C)[C@H]3C/C=C\CCN(C3=O)[C@@H](Cc3ccc(C(F)(F)F)cc3)C(=O)N(C)CC(=O)N[C@@H](CCc3ccc(C(F)(F)F)c(OC)c3)C(=O)N2C1` [PP1985], in experiment [2], the Kd is 0.23 nM. Further, in experiment [3], the IC50 is 17.7 nM. For the same compound, the “HRAS/KRAS (KD ratio)” value in experiment [4] is “B (a compound having 3 or more and less than 10 is denoted as B)”.

The Kd is the constant that tells how readily two partners part at equilibrium.
